Read-outs that look alike come from different tables or passages of the source. Positions of bridges follow the written chain, without caps; N, C: chain ends. Residues, ends and D or L forms follow the SMILES beside them.
Assay: Phase II pharmacokinetic evaluation of subcutaneous Ostabolin-C (Baseline and Week 12 subset)
Format: in vivo, human
Conditions: human, blood; for Cmax: read-out: Cmax
Experimental: The objective of this portion of the study was to evaluate the pharmacokinetics of Ostabolin-C under steady state conditions when given subcutaneously (sc) once a day to post-menopausal female subjects with low bone mineral density.
After Screening procedures and a 2-week placebo run-in phase, subjects were to be dosed once a day for 16 weeks with either Placebo or Ostabolin-C (7.5, 15, 30 or 45 μg). A subset of subjects from all treatment groups had blood collected for measurements of Ostabolin-C in order to determine PK parameters and compare them to prior studies.
The full study duration of the study was 22 weeks, which included a 6-week screening period involving a 2-week placebo run-in and then 16 weeks of treatment. The subset of subjects for this component of the study was treated the same as all other subjects with the exception of the additional blood collections at baseline and Week 12.
All of the values from the Placebo subject except one (Baseline 2 hour time-point) were below the assay level of detection (i.e., 10 pg/ml). With very limited exceptions, all values from Placebo subjects in prior trials have also been below the levels of detection. Thus, this one value was considered to be a laboratory error and PK parameters for this placebo subject were not calculated.
No samples were obtained for Pre-dose at either Baseline or Week 12. In all prior studies, pre-treatment values have been below the levels of detection and 24-hour time points at doses of 40 ug and below have been below the levels of detection. Thus, no observable values were anticipated and for calculating PK the pre-treatment values for Baseline visit were set to zero.
For pre-dose at Week 12, it was also anticipated that the values would be below the levels of detection based on prior studies and that the 24-hour post dose value would verify this. Only two 24-hour time-point values were above the level of detection; i.e. 24 hours post dosing at Baseline for Subject 030-003 and 24 hours post dosing at Week 12 for Subject 030-0004. The values of both of these 24-hour time-points were marginally above the assay level of detection. Also, both of these subjects had values below the levels of detection for both the 4 hour and 6 hour time-points after dosing on the prior day. Thus, these values are most likely artifacts and not real values. No valid 24 hour sample for subject 032-0001 at Week 12 was obtained. […] Thus, for calculating PK parameters, the Pre-dose values for Week 12 were also set to zero.
The pharmacokinetic parameters that were estimated at Baseline and Week 12 are as follows:
AUC values were estimated by a simple summation of trapezoidal areas from each time period. Data from each dose group were summarized using simple statistics on an Excel® spreadsheet; i.e., average (AVG) and Standard Deviation (STD). It should be noted that particularly with the lower doses and associated low blood levels and at late time points, those values just above versus just below the assay limits of detection can have a disproportionate impact to AUC calculations. This adds to that variability of the calculated numbers.

CC[C@H](C)[C@H](NC(=O)[C@H](CCC(=O)O)NC(=O)[C@H](CO)NC(=O)[C@@H](NC(=O)[C@@H](N)CO)C(C)C)C(=O)N[C@@H](CCC(N)=O)C(=O)N[C@@H](CC(C)C)C(=O)N[C@@H](CCSC)C(=O)N[C@@H](Cc1c[nH]cn1)C(=O)N[C@@H](CC(N)=O)C(=O)N[C@@H](CC(C)C)C(=O)NCC(=O)N[C@@H](CCCCN)C(=O)N[C@@H](Cc1c[nH]cn1)C(=O)N[C@@H](CC(C)C)C(=O)N[C@@H](CC(N)=O)C(=O)N[C@@H](CO)C(=O)N[C@@H](CCSC)C(=O)N[C@@H](CCC(=O)O)C(=O)N[C@@H](CCCN=C(N)N)C(=O)N[C@H](C(=O)N[C@H]1CCC(=O)NCCCC[C@@H](C(=O)N[C@@H](CC(C)C)C(=O)N[C@@H](CC(C)C)C(=O)N[C@@H](CCC(N)=O)C(=O)N[C@@H](CC(=O)O)C(=O)N[C@H](C(N)=O)C(C)C)NC(=O)[C@H](CCCN=C(N)N)NC(=O)[C@H](CC(C)C)NC(=O)[C@H](Cc2c[nH]c3ccccc23)NC1=O)C(C)C [Ostabolin-C, [Leu^27]cyclo[Glu^22-Lys^26]-PTH-(1-31)-NH2] (H-SVSEIQLMHNLGKHLNSMERVEWLRKLLQDV-NH2; lactam 22-26)
AUC(0-t) (female, sc, 45 ug, Dose 45, mean of Baseline and Week 12 data, read-out: AUC(0-4)): 0.22 ng·h/mL | AUC(0-t) (female, sc, 45 ug, Dose 45, mean of Baseline and Week 12 data, read-out: AUC(0-24)): 0.296 ng·h/mL | Cmax (female, sc, 45 ug, Dose 45, mean of Baseline and Week 12 data): 0.12 ng/mL | Tmax (female, sc, 45 ug, Dose 45, mean of Baseline and Week 12 data, read-out: Tmax): 22.8 min | AUC(0-t) (female, sc, 45 ug, Week 12, 45 ug, AVG, read-out: AUC(0-4)): 0.0995 ng·h/mL | AUC(0-t) (female, sc, 45 ug, Week 12, 45 ug, AVG, read-out: AUC(0-24)): 0.171 ng·h/mL | Cmax (female, sc, 45 ug, Week 12, 45 ug, AVG): 0.0669 ng/mL | Tmax (female, sc, 45 ug, Week 12, 45 ug, AVG, read-out: Tmax): 15 min | Tmax (female, sc, all doses, Baseline and Week 12 (STD 0.21 hrs), read-out: Tmax, overall average): 20.4 min | AUC(0-t) (female, subcutaneous, 7.5 ug, Baseline, 7.5 ug, AVG, read-out: AUC(0-4)): 0.0388 ng·h/mL | AUC(0-t) (female, subcutaneous, 7.5 ug, Baseline, 7.5 ug, AVG, read-out: AUC(0-24)): 0.0425 ng·h/mL | Cmax (female, subcutaneous, 7.5 ug, Baseline, 7.5 ug, AVG): 0.0272 ng/mL | AUC(0-t) (female, subcutaneous, 15 ug, Baseline, 15 ug, AVG, read-out: AUC(0-4)): 0.0742 ng·h/mL | AUC(0-t) (female, subcutaneous, 15 ug, Baseline, 15 ug, AVG, read-out: AUC(0-24)): 0.0742 ng·h/mL | Cmax (female, subcutaneous, 15 ug, Baseline, 15 ug, AVG): 0.0449 ng/mL | Tmax (female, subcutaneous, 15 μg, Dose 15, mean of Baseline and Week 12 data, read-out: Tmax): 19.8 min | Tmax (female, subcutaneous, 15 ug, Week 12, 15 ug, AVG, read-out: Tmax): 19.8 min | AUC(0-t) (female, subcutaneous, 45 ug, Baseline, 45 ug, AVG, read-out: AUC(0-4)): 0.341 ng·h/mL | AUC(0-t) (female, subcutaneous, 45 ug, Baseline, 45 ug, AVG, read-out: AUC(0-24)): 0.42 ng·h/mL | Cmax (female, subcutaneous, 45 ug, Baseline, 45 ug, AVG): 0.174 ng/mL | Cmax (subcutaneous, 7.5 ug, Baseline, 7.5 ug, individual subjects): 0.0207 ng/mL | Cmax (subcutaneous, 7.5 ug, Week 12, 7.5 ug, individual subjects): 0.021 ng/mL | Tmax (subcutaneous, 7.5 ug, Week 12, 7.5 ug, individual subjects, read-out: Tmax): 15 min | AUC(0-t) (subcutaneous, 15 ug, Baseline, 15 ug, individual subjects, read-out: AUC(0-4)): 0.066 ng·h/mL | AUC(0-t) (subcutaneous, 15 ug, Baseline, 15 ug, individual subjects, read-out: AUC(0-24)): 0.066 ng·h/mL | Cmax (subcutaneous, 15 ug, Baseline, 15 ug, individual subjects): 0.0306 ng/mL | Tmax (subcutaneous, 15 ug, Baseline, 15 ug, individual subjects, read-out: Tmax): 30 min | Tmax (subcutaneous, 15 ug, Week 12, 15 ug, individual subjects, read-out: Tmax): 15 min | AUC(0-t) (subcutaneous, 30 ug, Baseline, 30 ug, individual subject, read-out: AUC(0-4)): 0.104 ng·h/mL | AUC(0-t) (subcutaneous, 30 ug, Baseline, 30 ug, individual subject, read-out: AUC(0-24)): 0.104 ng·h/mL | Cmax (subcutaneous, 30 ug, Baseline, 30 ug, individual subject): 0.0639 ng/mL | Tmax (subcutaneous, 30 ug, Baseline, 30 ug, individual subject, read-out: Tmax): 30 min | AUC(0-t) (subcutaneous, 30 ug, Week 12, 30 ug, individual subjects, read-out: AUC(0-24)): 0.154 ng·h/mL | Cmax (subcutaneous, 30 ug, Week 12, 30 ug, individual subjects): 0.0762 ng/mL | Tmax (subcutaneous, 30 ug, Week 12, 30 ug, individual subjects, read-out: Tmax): 15 min | AUC(0-t) (subcutaneous, 45 ug, Baseline, 45 ug, individual subjects, read-out: AUC(0-4)): 0.337 ng·h/mL | AUC(0-t) (subcutaneous, 45 ug, Baseline, 45 ug, individual subjects, read-out: AUC(0-24)): 0.47 ng·h/mL | Tmax (subcutaneous, 45 ug, Baseline, 45 ug, individual subjects, read-out: Tmax): 30 min | AUC(0-t) (subcutaneous, 45 ug, Week 12, 45 ug, individual subject, read-out: AUC(0-4)): 0.128 ng·h/mL | AUC(0-t) (subcutaneous, 45 ug, Week 12, 45 ug, individual subject, read-out: AUC(0-24)): 0.128 ng·h/mL | Cmax (subcutaneous, 45 ug, Week 12, 45 ug, individual subject): 0.0871 ng/mL | Tmax (subcutaneous, 45 ug, Week 12, 45 ug, individual subject, read-out: Tmax): 15 min

Source: US20080176787A1, “Parathyroid hormone analogues and methods of use” (priority 2005, published 2008)
